Our source for the EC50 values is patent US10654834B2 (Venenum Biodesign, LLC, priority 2016, dated 2020).

Structures are written as SMILES.

Assay type in all cases: cell-based
For test [1], the target named is T1, human TGR5 receptor (Homo sapiens, UniProt Q8TDU6).
T1 construct: host or cells: CHO-K1 (hTGR5-CHO)
T1 sequence (Q8TDU6 1-330): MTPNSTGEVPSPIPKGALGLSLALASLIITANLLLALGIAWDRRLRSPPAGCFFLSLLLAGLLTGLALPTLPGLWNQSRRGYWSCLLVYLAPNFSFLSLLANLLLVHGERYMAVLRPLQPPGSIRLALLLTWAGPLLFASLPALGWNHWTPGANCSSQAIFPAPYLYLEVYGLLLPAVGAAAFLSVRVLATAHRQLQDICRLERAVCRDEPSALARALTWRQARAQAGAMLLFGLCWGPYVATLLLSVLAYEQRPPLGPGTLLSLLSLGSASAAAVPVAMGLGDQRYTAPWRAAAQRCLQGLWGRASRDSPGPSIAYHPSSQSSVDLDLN
The experiment in a line: Human TGR5 cAMP production assay (hTGR5-CHO cells, DiscoveRx cAMP XS+ kit). As to conditions: luminescent cAMP assay, read-out: Human TGR5 Lum. cAMP Activity (EC50). The method in brief: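 CHO-K1 cells stably expressing hTGR5, in PBS with IBMX and cAMP antibody, treated with half-log compound dilutions for 1 h at room temperature. cAMP measured by enzyme-fragment complementation luminescence after overnight detection; EC50 values reported.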

Test [2] concerns the target T2, mouse TGR5 receptor (Mus musculus, UniProt Q80SS6).
T2 construct: host or cells: HEK293-EBNA (293 c18, ATCC CRL10852)
T2 sequence (Q80SS6 1-329): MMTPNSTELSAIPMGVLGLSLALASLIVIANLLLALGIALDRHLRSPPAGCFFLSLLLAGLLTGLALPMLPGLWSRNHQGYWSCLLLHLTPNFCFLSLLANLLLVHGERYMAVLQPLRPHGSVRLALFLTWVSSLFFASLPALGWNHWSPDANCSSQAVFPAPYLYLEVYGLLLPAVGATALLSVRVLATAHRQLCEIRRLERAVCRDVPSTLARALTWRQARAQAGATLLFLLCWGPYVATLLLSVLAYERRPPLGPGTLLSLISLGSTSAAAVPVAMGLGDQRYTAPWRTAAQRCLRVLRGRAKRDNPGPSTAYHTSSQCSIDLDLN
Kind of test: Mouse TGR5 luminescent cAMP production assay (HEK293-EBNA cells, DiscoveRx cAMP XS+ kit). As to conditions: HEK293-EBNA cells overexpressing mouse TGR5, luminescent cAMP assay; read-out: Mouse TGR5 Lum. cAMP Activity (EC50). As to the method:
Mouse TGR5 cAMP Production Assay
Compounds of the present invention were evaluated for their ability to induce cAMP production in HEK-EBNA cells overexpressing the mouse TGR5 receptor. Human embryonic kidney cells (HEK293-EBNA) stably expressing mouse TGR5 receptor were established using the following procedure. Specifically, a commercially obtained gene encoding mouse TGR5 (accession number BC116914) from Thermo Scientific (Waltham, Mass.) was cloned into an episomal expression vector. The resulting expression plasmid was then transfected into 293 c18 (ATCC® CRL10852™) cells, which express the Epstein-Barr virus nuclear antigen EBNA1 and can support the replication of episomal vectors. Selection for the plasmid was maintained with Hygromycin B. Cells were cultured and maintained in DMEM (Sigma; cat #6429) supplemented with 10% Fetal Bovine Serum, 1% penicillin/streptomycin, 2 mM L-alanine L-glutamine (GlutaMax), and 250 μg/mL Hygromycin.
We developed two cAMP production assays.
(i) Luminescent cAMP Production Assay
In this first cAMP production assay, the cAMP production was measured using DiscoveRx's cAMP XS+ kit following the manufacturer's recommended protocol. Briefly, HEK293-EBNA cells stably overexpressing mouse TGR5 were harvested using non-enzymatic cell dissociation buffer (Sigma-Aldrich, St. Louis, Mo.), spun down, then resuspended in serum-free DMEM with 500 μM IBMX at a density of 1.25×10^6 cells/mL. 500 μL of cAMP antibody solution was added to 500 μL of cell suspension and incubated at room temperature for 20 min.
Test compounds were serially diluted (half-log dilutions) in DMSO and then further diluted 1:50 in PBS, 10 mM HEPES buffer. 2 μL of serially diluted compound was added to a 384-well low volume plate (Greiner cat #784075) and centrifuged briefly. 2 μl of the cell/cAMP antibody mixture was then added to each compound-containing well and allowed to incubate at room temperature for one (1) hour. Following incubation, the XS+ kits' ED/Lysis/CL Substrate Working Solution was prepared following the manufacturer's recommended protocol and 4 μL was added to each well of the plate. The plate was then incubated for one (1) hour at room temperature. Following incubation, 4 μL of (Enzyme Acceptor) EA reagent was added to the plate and allowed to incubate overnight at room temperature. Luminescent signal was then detected using the Viewlux instrument (PerkinElmer, Waltham, Mass.).
In Table 52, EC50 values for both human and mouse cells were determined according to the TGR5 cAMP assays described above. […]

Test [3] has as its target T2, mouse TGR5 receptor. The experiment in a line: Mouse TGR5 HTRF cAMP production assay (HEK293-EBNA cells, Cisbio cAMP HiRange kit). As to conditions: HEK293-EBNA cells overexpressing mouse TGR5, HTRF cAMP assay. A digest of the protocol:
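HEK293-EBNA cells stably expressing mouse TGR5 (episomal vector) were suspended in serum-free DMEM with 500 μM IBMX and exposed to 12-point half-log compound dilutions for 1 h at room temperature. cAMP was detected by HTRF (d2-cAMP/anti-cAMP cryptate, 1 h, room temperature), giving EC50 from duplicates.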

In test [4] the test system is Mouse STC-1 cells. The experiment in a line: STC-1 GLP-1 assay (GLP-1 secretion). As to conditions: Mouse STC-1 cells, GLP-1 secretion, 2 h; read-out: Mouse STC-1 HTRF GLP-1 Activity (EC50). As to the method:
Compounds of the present invention were evaluated for their ability to induce GLP-1 production in mouse intestinal neuroendocrine tumor cells.
Mouse STC-1 cells were cultured and maintained in high glucose DMEM (Sigma #5796) supplemented with 15% horse serum, 5% Fetal Bovine Serum (FBS), 1%° penicillin/streptomycin, and 2 mM L-alanine L-glutamine (GlutaMax). Two days prior to analysis of GLP-1 secretion cells were harvested using Accutase (Sigma), spun down then resuspended in high glucose DMEM media containing 2 mM L-alanine L-glutamine (GlutaMax), 10% charcoal-dextran stripped FBS, and 50 μg/mL Gentamicin, at a density of 100,000° cells/mL. 100 μL of cell suspension was added to each well of a 96-well Poly-D-Lysine coated culture plate (Sigma; cat #2382493) and was incubated at 37° C. with 5% CO2.
Compounds were initially diluted in 100% DMSO (12-point serial dilution by half logs) in a 96-well plate and then were further diluted 1:500 in Hanks' Balanced Salt Solution (HBSS) containing protease inhibitor cocktail, DPP-IV inhibitor, and 0.1% fatty acid free bovine serum albumin. On the day of the experiment cells were washed once with HBSS. After wash, 100 μL of test compound was added to each well. The plate was incubated at 37° C. with 5% CO2 for 2° h. Supernatants were collected and GLP-1 secretion was measured using the Cisbio™ Active GLP-1 HTRF Assay Kit (CisBio). Briefly, Anti-GLP-1-d2 conjugate and Anti-GLP-1 Terbium Cryptate conjugate stock solutions were prepared as per kit instructions. The two solutions were pre-mixed and 10 μL were transferred to a 384-well low volume plate (Greiner; cat #784075). 10 μL of collected supernatants were added to wells already containing the conjugate solution. The plate was covered and incubated at room temperature overnight. The plate was read on an Envision™ plate reader (PerkinElmer).
In Table 53, EC50 values were obtained from the STC-1 GLP-1 production assay for compounds of the present invention are summarized.

For `O=C(NCCc1ccc(C(F)(F)F)cc1)[C@@H]1CCCN1c1cc(NCc2ccncc2)nc(C(F)(F)F)n1` [Compound 3], the results for the EC50 in test [1] and in test [2] were 1 to 30 µM and 0.1 to 0.999 µM, respectively.
In the same order, the values of `O=C(NCCc1ccc(C(F)(F)F)cc1)[C@@H]1CCCN1c1cc(NCc2cccnc2)nc(C(F)(F)F)n1` [Compound 4] are 1 to 30 µM and 0.1 to 0.999 µM.
In the same order, the values of `O=C(NCCc1ccc(C(F)(F)F)cc1)[C@@H]1CCCN1c1cc(N2CCC(CCO)CC2)nc(C(F)(F)F)n1` [Compound 7] are < 0.1 µM and < 0.1 µM.
On the same counts, the results for `COCC1CCN(c2cc(N3CCC[C@H]3C(=O)NCCc3ccc(C(F)(F)F)cc3)nc(C(F)(F)F)n2)CC1` [Compound 8] are < 0.1 µM and 0.1 to 0.999 µM.
Regarding `N#Cc1ccc(CCNC(=O)[C@@H]2CCCN2c2cc(NCc3ccncc3)nc(C(F)(F)F)n2)cc1` [Compound 13], the EC50 in test [1] is 0.1 to 0.999 µM; in test [2], < 0.1 µM.
Take `N#Cc1ccc(CCNC(=O)[C@@H]2CCCN2c2cc(Nc3ccncc3)nc(C(F)(F)F)n2)cc1` [Compound 14]: the EC50 in test [1] and in test [2] was 1 to 30 µM throughout.
For `CC(C)(C)OC(=O)N1CCC(Nc2cc(N3CCC[C@H]3C(=O)NCCc3ccc(C#N)cc3)nc(C(F)(F)F)n2)CC1` [Compound 15], the EC50 in test [1] was 1 to 30 µM; in test [2], < 0.1 µM.
Take `CC(C)(C)OC(=O)NC1CCN(c2cc(N3CCC[C@H]3C(=O)NCCc3ccc(C#N)cc3)nc(C(F)(F)F)n2)CC1` [Compound 16]: the values for the 50% effective concentration (EC50) in test [1] and in test [2] were 0.1 to 0.999 µM and < 0.1 µM, respectively.
On the same counts, the results for `CC(C)(C)OC(=O)NCC1CCN(c2cc(N3CCC[C@H]3C(=O)NCCc3ccc(C#N)cc3)nc(C(F)(F)F)n2)CC1` [Compound 17] are 0.1 to 0.999 µM and 0.1 to 0.999 µM.
In the same order, the values of `CC(C)(C)OC(=O)NCCC1CCN(c2cc(N3CCC[C@H]3C(=O)NCCc3ccc(C#N)cc3)nc(C(F)(F)F)n2)CC1` [Compound 18] are 0.1 to 0.999 µM and 0.1 to 0.999 µM.
In the same order, the values of `CN(CC1CCN(c2cc(N3CCC[C@H]3C(=O)NCCc3ccc(C#N)cc3)nc(C(F)(F)F)n2)CC1)C(=O)OC(C)(C)C` [Compound 20] are 1 to 30 µM and 1 to 30 µM.
As for `CN1CCC(Oc2cc(N3CCC[C@H]3C(=O)NCCc3ccc(C#N)cc3)nc(C(F)(F)F)n2)CC1` [Compound 39, (S)—N-(4-cyanophenethyl)-1-(6-((1-methylpiperidin-4-yl)oxy)-2-(trifluoromethyl)pyrimidin-4-yl)pyrrolidine-2-carboxamide], the EC50 in test [1] was 0.1 to 0.999 µM; in test [2] it was < 0.1 µM.
On the same counts, the results for `COCCOc1cc(N2CCC[C@H]2C(=O)NCCc2ccc(C(F)(F)F)cc2)nc(C(F)(F)F)n1` [Compound 42, (S)-1-(6-(2-methoxyethoxy)-2-(trifluoromethyl)pyrimidin-4-yl)-N-(4-(trifluoromethyl)phenethyl)pyrrolidine-2-carboxamide] are 0.1 to 0.999 µM and 0.1 to 0.999 µM.
In the same order, the values of `N#Cc1ccc(CCNC(=O)[C@@H]2CCCN2c2cc(Oc3ccccc3)nc(C(F)(F)F)n2)cc1` [Compound 43, (S)-N-(4-cyanophenethyl)-1-(6-phenoxy-2-(trifluoromethyl)pyrimidin-4-yl)pyrrolidine-2-carboxamide] are 0.1 to 0.999 µM and 0.1 to 0.999 µM.
On the same counts, the results for `COc1ccc(Oc2cc(N3CCC[C@H]3C(=O)NCCc3ccc(C#N)cc3)nc(C(F)(F)F)n2)cc1` [Compound 44, (S)-N-(4-cyanophenethyl)-1-(6-(4-methoxyphenoxy)-2-(trifluoromethyl)pyrimidin-4-yl)pyrrolidine-2-carboxamide] are 1 to 30 µM and 0.1 to 0.999 µM.
In the case of `N[C@@H](CO)C(=O)N1CCN(c2cc(N3CCC[C@@H](C(=O)NCCc4ccc(C(F)(F)F)cc4)C3)nc(C(F)(F)F)n2)CC1` [Compound 342, (R)-1-(6-(4-((S)-2-amino-3-hydroxypropanoyl)piperazin-1-yl)-2-(trifluoromethyl)pyrimidin-4-yl)-N-(4-(trifluoromethyl)phenethyl)piperidine-3-carboxamide], the EC50 is 0.1 to 0.999 µM in test [1], < 0.1 µM in test [3] and 0.1 to 0.999 µM in test [4].
For `CCOC(=O)CCNC(=O)NCCC1CCN(c2cc(N3CCC[C@@H](C(=O)NCCc4ccc(C#N)cc4)C3)nc(C(F)(F)F)n2)CC1` [Compound 346, (R)-ethyl 3-(3-(2-(1-(6-(3-((4-cyanophenethyl)carbamoyl)piperidin-1-yl)-2-(trifluoromethyl)pyrimidin-4-yl)piperidin-4-yl)ethyl)ureido)propanoate], the EC50 in test [1], in test [3] and in test [4] was < 0.1 µM throughout.
For `N#Cc1ccc(CCNC(=O)[C@@H]2CCCN2c2cc(N3CCC(CCNS(=O)(=O)CCNC(=O)NCCC(=O)O)CC3)nc(C(F)(F)F)n2)cc1` [Compound 371, (S)-3-(3-(3-((2-(1-(6-(2-((4-cyanophenethyl)carbamoyl)pyrrolidin-1-yl)-2-(trifluoromethyl)pyrimidin-4-yl)piperidin-4-yl)ethyl)amino)-2-sulfonyl)ethylureido)propanoic acid], the EC50 in test [1] is < 0.1 µM; in test [3], < 0.1 µM; in test [4], 0.1 to 0.999 µM.
